These results are taken from article PMC9723630 (2022).

Assay [1] concerns D3-HP (DNA, hairpin) CTAGTCATTTTGACTAG
In words: ITC. Conditions: K+ (20 mM potassium phosphate, 100 mM KCl; 120 mM K+), pH 7.0, 5% DMSO, 40 °C.

Assay [2] deals with QD2-l (DNA, G4) GGTTGGCGCGAAGCATTCGCGGGTTGG
In words: CD melting at 295 nm. Conditions: K+ (10 mM potassium phosphate), pH 7.0, 5 µM DNA, 1:1 ligand (5 µM), free Tm 50.3 °C.

The subject of assay [3] is QD3-sbl (DNA, G4) TTAGGTGGGTAGGGTGGGCTAGTCATTTTGACTAGG
In words: ITC. Conditions: K+ (20 mM potassium phosphate, 100 mM KCl; 120 mM K+), pH 7.0, 5% DMSO, 40 °C.

For assay [4], the system named is Q3-sbl (DNA, G4) TTAGGGTGGTAGGGTGGGGAAGG
In words: ITC. As to conditions: K+ (20 mM potassium phosphate, 100 mM KCl; 120 mM K+), pH 7.0, 5% DMSO, 40 °C.

The test system of assay [5] is TBA (DNA, G4) GGTTGGTGTGGTTGG
In words: ITC. Conditions: K+ (20 mM potassium phosphate, 100 mM KCl; 120 mM K+); pH 7.0, 5% DMSO, 40 °C.

Assay [6] relates to QD2-l-2bp (DNA, G4) GGTTGGCGGCACGGGTTGG
In words: ITC. As to conditions: K+ (20 mM potassium phosphate, 100 mM KCl; 120 mM K+); pH 7.0, 5% DMSO, 40 °C; site 1 of 2.

The subject of assay [7] is D2-HP (DNA, hairpin) CGCGAAGCATTCGCG
In words: ITC. As to conditions: K+ (20 mM potassium phosphate, 100 mM KCl; 120 mM K+); pH 7.0, 5% DMSO, 40 °C.

Assay [8] relates to QD2-l (DNA, G4) GGTTGGCGCGAAGCATTCGCGGGTTGG
In words: ITC. As to conditions: K+ (20 mM potassium phosphate, 100 mM KCl; 120 mM K+), pH 7.0, 5% DMSO, 40 °C, site 1 of 2.

The subject of assay [9] is QD3-sbl (DNA, G4) TTAGGTGGGTAGGGTGGGCTAGTCATTTTGACTAGG
In words: NMR titration and solution structure. As to conditions: K+ (10 mM potassium phosphate for structure; 120 mM K+ for titration); pH 7.0, 30 °C titration; intercalation at quadruplex-duplex junction, slow exchange.

Assay [10] deals with Q3-sbl2 (DNA, G4) TTAGGTGGGTAGGGTGGGTGTG
In words: NMR titration. Conditions: K+ (10 mM potassium phosphate); pH 7.0, 30 °C, 0.75 mM DNA; stacks on 5'-tetrad.

In the case of `CN(C)CCCNc1c2ccccc2nc2c1[nH]c1ccccc12`, the Ka is 1.3e+06 ± 120000 M⁻¹ in [1] (site 1 of 2), 1.1e+07 ± 3.3e+06 M⁻¹ in assay [3] (site 1 of 2) and 2.1e+06 ± 610000 M⁻¹ in assay [4] (site 1 of 2). Also, the Tm increase in [2] was ~ 5 °C.
Take `CCN(CC)CCCNC(=O)c1ccc(-c2c3cccc(C)c3[n+](C)c3c2[nH]c2c(C)cccc23)cc1`: the Ka in assay [5] was 26000 ± 8600 M⁻¹; in [6], 7.1e+06 ± 77000 M⁻¹; in assay [1], 16000 ± 2200 M⁻¹; in assay [7] it was 45000 ± 14000 M⁻¹; in assay [3] (site 1 of 2), 1.3e+07 ± 2.9e+06 M⁻¹; in [8] (Table S13 prints error 1.4×10^6), 8.3e+06 ± 120000 M⁻¹. Moreover, the Ka in assay [4] (site 1 of 2) was determined as 3.2e+06 ± 1.4e+06 M⁻¹. The Tm increase in assay [2] was ~ 13 °C.
For `CN1C(=Cc2cc[n+](C)c3ccccc23)Sc2ccccc21`, the values for the Ka in assay [1], in assay [3] (site 1 of 2) and in assay [4] were 41000 ± 2700 M⁻¹, 1.1e+06 ± 27000 M⁻¹ and 170000 ± 67000 M⁻¹, respectively.
As to `C[n+]1cc(NC(=O)c2ccc3ccc4ccc(C(=O)Nc5cc6ccccc6[n+](C)c5)nc4c3n2)cc2ccccc21`, the binding result in assay [9] and in assay [10] was “yes” each time. Moreover, the Tm increase in assay [2] (complex 74 °C) is ~ 24 °C.
Turning to `CN(C)CCN1C(=O)c2ccc3c4c(ccc(c24)C1=O)C(=O)N(CCN(C)C)C3=O`, the Ka amounted to 72000 ± 23000 M⁻¹ in assay [1], 120000 ± 25000 M⁻¹ in assay [3] (authors: competing sites may not be separated) and 95000 ± 11000 M⁻¹ in assay [4].
As to `CCOCCCNC(=O)c1ccc(-c2c3cccc(C)c3[n+](C)c3c2[nH]c2c(C)cccc23)cc1`, the Ka in [8] stood at 2.6e+06 ± 700000 M⁻¹.
Turning to `CN(C)c1ccc(Nc2c3ccc(NC(=O)CCN4CCCC4)cc3nc3cc(NC(=O)CCN4CCCC4)ccc23)cc1`, the Ka was 2.9e+06 ± 690000 M⁻¹ in assay [1] (site 1 of 2); 1.4e+07 ± 6.1e+06 M⁻¹ in assay [3] (site 1 of 2, authors: competing sites may not be separated); 3e+07 ± 2.3e+06 M⁻¹ in assay [4] (site 1 of 2).
Regarding `Cc1cccc2c1[nH]c1c(-c3ccc(C(=O)NCCCN(C)CCCN)cc3)c3cccc(C)c3[n+](C)c12`, the Ka in assay [8] is 7.9e+06 ± 900000 M⁻¹.
